In patent publication US6737383B1, “Herbicidal oxadiazolidines” (priority 1999, dated 2004):

Legend:
[1] = test system: soybean; experiment: Test B pre/postemergence soybean; format: in vivo, Glycine max
Summary of the method: (§1)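 Response is a visual 0-to-10 score relative to untreated plants, where 0 means no effect and 10 means complete control, taken twelve to sixteen days after application. Treatments went onto soil at planting and onto foliage of 1- to 4-leaf plants, using a surfactant-containing non-phytotoxic solvent.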

[2] = test system: corn; experiment: Test B pre/postemergence corn; format: in vivo, Zea mays
Summary of the method: as §1

[3] = test system: bedstraw; experiment: Test B pre/postemergence bedstraw; format: in vivo, Galium aparine
Summary of the method: as §1

[4] = test system: surinam grass; experiment: Test B pre/postemergence surinam grass; format: in vivo, Brachiaria decumbens
Summary of the method: as §1

[5] = test system: pigweed; experiment: Test B pre/postemergence pigweed; format: in vivo, Amaranthus retroflexus
Summary of the method: as §1

[6] = test system: morningglory; experiment: Test B pre/postemergence morningglory; format: in vivo, Ipomoea hederacea
Summary of the method: as §1

[7] = test system: sugar beet; experiment: Test B pre/postemergence sugar beet; format: in vivo, Beta vulgaris
Summary of the method: as §1

[8] = test system: velvetleaf; experiment: Test B pre/postemergence velvetleaf; format: in vivo, Abutilon theophrasti
Summary of the method: as §1

[9] = test system: bamyardgrass; experiment: Test B flood test barnyardgrass; format: in vivo, Echinochloa crus-galli
Summary of the method: (§2)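 Flood test on plants grown to the 2-leaf stage; treated plants kept in greenhouse twelve to sixteen days, then visually rated against controls on a 0 (no effect) to 10 (complete control) scale.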

[10] = test system: blackgrass; experiment: Test B pre/postemergence blackgrass; format: in vivo, Alopecurus myosuroides
Summary of the method: as §1

[11] = test system: rape; experiment: Test B pre/postemergence rape; format: in vivo, Brassica napus
Summary of the method: as §1

[12] = test system: giant foxtail; experiment: Test B pre/postemergence giant foxtail; format: in vivo, Setaria faberii
Summary of the method: as §1

[13] = test system: purple nutsedge; experiment: Test B pre/postemergence purple nutsedge; format: in vivo, Cyperus rotundus
Summary of the method: as §1

[14] = test system: rice; experiment: Test B flood test rice; format: in vivo, Oryza sativa
Summary of the method: as §2

[15] = test system: duck salad; experiment: Test B flood test duck salad; format: in vivo, Heteranthera limosa
Summary of the method: as §2

[16] = test system: smallflower flatsedge; experiment: Test B flood test smallflower flatsedge; format: in vivo, Cyperus difformis
Summary of the method: as §2

[17] = Preemergence, Rate 31 g/ha, visual rating, scale 0 to 10 (0 no effect, 10 complete control)
[18] = Preemergence, Rate 62 g/ha, scale of 0 to 10 where 0 is no effect and 10 is complete control
[19] = Preemergence, Rate 250 g/ha, scale of 0 to 10 where 0 is no effect and 10 is complete control
[20] = Rate 62 g/ha, Postemergence, scale of 0 to 10 where 0 is no effect and 10 is complete control
[21] = Rate 125 g/ha, Postemergence, scale 0 to 10
[22] = Rate 125 g/ha, Preemergence, scale of 0 to 10 where 0 is no effect and 10 is complete control
[23] = Rate 31 g/ha, Postemergence, scale 0 to 10
[24] = Rate 31 g/ha, Pre-emergence section (flood test species), scale 0 to 10
[25] = Rate 62 g/ha, headed Pre-emergence (flood test species), scale 0 to 10 (0 no effect, 10 complete control)
[26] = Rate 125 g/ha, Pre-emergence, flood test species, scale 0 to 10 where 0 is no effect and 10 is complete control
[27] = Rate 250 g/ha, Pre-emergence, flood-test species, scale 0 to 10, 0 is no effect, 10 is complete control

CCCCn1c(=O)on(C(=O)N(c2ccc(F)cc2)C(C)C)c1=O [Compound 221]
9: Plant response rating (0 to 10; 0 is no effect, 10 is complete control), Bedstraw ([3]; Rate 250 g/ha, Postemergence) | Redroot pigweed plant response rating [5, 18] | Blackgrass plant response rating [10, 21] | Plant response rating (0 to 10; 0 is no effect, 10 is complete control), Blackgrass ([10]; Rate 250 g/ha, Postemergence) | Giant foxtail plant response rating [12, 22]
6: B. signalgrass plant response rating ([4]; Preemergence, Rate 250 g/ha, scale 0 to 10, 0 is no effect, 10 is complete control) | Redroot pigweed plant response rating [5, 20] | Rape plant response rating [11, 22]
8: Plant response rating (0 to 10; 0 is no effect, 10 is complete control), B. signalgrass ([4]; Rate 250 g/ha, Postemergence) | Redroot pigweed plant response rating [5, 21] | Plant response rating (0 to 10; 0 is no effect, 10 is complete control), Redroot pigweed ([5]; Rate 250 g/ha, Postemergence) | Rape plant response rating [11, 19]
3: Plant response rating (0 to 10; 0 is no effect, 10 is complete control), Soybean ([1]; Rate 250 g/ha, Postemergence) | B. signalgrass plant response rating ([4]; Rate 125 g/ha, Postemergence, scale 0 (no effect) to 10 (complete control))
5: B. signalgrass plant response rating [4, 18] | B. signalgrass plant response rating [4, 22] | Blackgrass plant response rating [10, 17] | Blackgrass plant response rating [10, 18] | Giant foxtail plant response rating [12, 17] | Giant foxtail plant response rating [12, 18]
10: Redroot pigweed plant response rating [5, 19] | Redroot pigweed plant response rating [5, 22] | Sugarbeets plant response rating [7, 19] | Giant foxtail plant response rating [12, 19]
2: Soybean plant response rating [1, 20] | Soybean plant response rating [1, 21] | Bedstraw plant response rating [3, 23] | Bedstraw plant response rating [3, 20] | B. signalgrass plant response rating [4, 17] | Redroot pigweed plant response rating [5, 23] | Blackgrass plant response rating [10, 23] | Blackgrass plant response rating [10, 20] | Giant foxtail plant response rating [12, 20]
4: Bedstraw plant response rating [3, 19] | Bedstraw plant response rating [3, 22] | Sugarbeets plant response rating [7, 21] | Sugarbeets plant response rating [7, 22] | Plant response rating (0 to 10; 0 is no effect, 10 is complete control), Sugarbeets ([7]; Rate 250 g/ha, Postemergence) | Rape plant response rating [11, 21] | Plant response rating (0 to 10; 0 is no effect, 10 is complete control), Rape ([11]; Rate 250 g/ha, Postemergence)
7: Bedstraw plant response rating [3, 21] | Redroot pigweed plant response rating [5, 17] | Blackgrass plant response rating [10, 19] | Blackgrass plant response rating [10, 22] | Giant foxtail plant response rating [12, 21] | Plant response rating (0 to 10; 0 is no effect, 10 is complete control), Giant foxtail ([12]; Rate 250 g/ha, Postemergence)
0: Soybean plant response rating [1, 17] | Soybean plant response rating [1, 18] | Soybean plant response rating [1, 19] | Soybean plant response rating [1, 22] | Corn plant response rating [2, 17] | Corn plant response rating [2, 18] | Corn plant response rating [2, 19] | Corn plant response rating [2, 23] | Corn plant response rating [2, 20] | Corn plant response rating [2, 21] | Corn plant response rating [2, 22] | Plant response rating (0 to 10; 0 is no effect, 10 is complete control), Corn ([2]; Rate 250 g/ha, Postemergence) | Bedstraw plant response rating [3, 17] | Bedstraw plant response rating [3, 18] | B. signalgrass plant response rating [4, 23] | B. signalgrass plant response rating [4, 20] | Morningglory plant response rating [6, 17] | Morningglory plant response rating [6, 18] | Morningglory plant response rating [6, 19] | Morningglory plant response rating [6, 23] | Morningglory plant response rating [6, 20] | Morningglory plant response rating [6, 21] | Morningglory plant response rating [6, 22] | Plant response rating (0 to 10; 0 is no effect, 10 is complete control), Morningglory ([6]; Rate 250 g/ha, Postemergence) | Sugarbeets plant response rating [7, 17] | Sugarbeets plant response rating [7, 18] | Sugarbeets plant response rating [7, 20] | Velvetleaf plant response rating [8, 17] | Velvetleaf plant response rating [8, 18] | Velvetleaf plant response rating [8, 19] | Velvetleaf plant response rating [8, 20] | Velvetleaf plant response rating [8, 21] | Velvetleaf plant response rating [8, 22] | Plant response rating (0 to 10; 0 is no effect, 10 is complete control), Velvetleaf ([8]; Rate 250 g/ha, Postemergence) | Barnyardgrass plant response rating [9, 24] | Barnyardgrass plant response rating [9, 25] | Barnyardgrass plant response rating [9, 26] | Barnyardgrass plant response rating [9, 27] | Rape plant response rating [11, 17] | Rape plant response rating [11, 18] | Rape plant response rating [11, 23] | Rape plant response rating [11, 20] | Giant foxtail plant response rating [12, 23] | Nutsedge plant response rating [13, 17] | Nutsedge plant response rating [13, 18] | Nutsedge plant response rating [13, 19] | Nutsedge plant response rating [13, 23] | Nutsedge plant response rating [13, 20] | Nutsedge plant response rating [13, 21] | Nutsedge plant response rating [13, 22] | Plant response rating (0 to 10; 0 is no effect, 10 is complete control), Nutsedge ([13]; Rate 250 g/ha, Postemergence) | Rice plant response rating [14, 24] | Rice plant response rating [14, 25] | Rice plant response rating [14, 26] | Rice plant response rating [14, 27] | Ducksalad plant response rating [15, 24] | Ducksalad plant response rating [15, 25] | Ducksalad plant response rating [15, 26] | Ducksalad plant response rating [15, 27] | S. Flatsedge plant response rating [16, 24] | S. Flatsedge plant response rating [16, 25] | S. Flatsedge plant response rating [16, 26] | S. Flatsedge plant response rating [16, 27]
